{"source": "patent US20240246042A1", "about": "“METHOD FOR EMULSIFICATION USING IONIC FLUX” (Purdue Research Foundation, priority 2023, published 2024)", "key": {"[1]": {"type": "physicochemical", "settings": "aqueous phase None; cathode in aqueous, anode in DCE (per FIG. 23C, 24D-F); 5 mA, 5 min", "protocol": "E) The cathode was placed in an aqueous phase containing no phase-transfer agent, and the anode was placed in DCE containing 0.1 M [NBu4][Br]. F) The cathode was placed in an aqueous phase containing no phase-transfer agent, and the anode was placed in DCE containing 0.1 M [NHx][ClO4].\nAll experiments were performed using bi-phasic systems consisting of immiscible solutions, such as 1,2-dichloroethane and water. Before experimentation, a platinum wire (r=1 mm) was sealed within a cell while maintaining an electrical connection. […] A secondary platinum wire (r=1 mm) was then submerged into the aqueous top layer to complete the circuit and allow for current to flow. Upon submersion, a current was then applied across the system using DC power supply. Current was maintained at 5 mA for a total duration of 5 min. Solutions were allowed to rest for an additional 5 minutes before additional experimentation or measurement.\nThe droplet sizes were measured. In these measurements, the resulting top layer and bottom layer from the prior section were allowed to rest for 5 minutes and were then transferred to a 1 cm glass cuvette. After transfer, the cuvette was inserted into the DLS instrumentation and was allowed to perform dynamic light scatter measurements to determine the size and intensity of the droplets formed during electro-emulsification. […]"}, "[2]": {"experiment": "Gibbs free energy of ion transfer and ion transfer potentials across the water and DCE phase", "type": "physicochemical", "description": "The Gibbs free energy of ion transfer and the ion transfer potentials for relevant ions across the water and DCE phase were studied."}, "[3]": {"settings": "transfer from water to DCE; cited from earlier work"}}, "note": "Read-outs that look alike come from different tables or passages of the source."}
{"smiles": "CCCCCC[N+](CCCCCC)(CCCCCC)CCCCCC.[O-][Cl+3]([O-])([O-])[O-]", "note": "[[NHx4][ClO4], tetrahexylammonium perchlorate]", "values": [{"measurement": "Average Size (d · nm) N = 3", "setting": "[1]", "result": 3477, "unit": "nm"}, {"measurement": "Zeta Potential", "setting": "[1]", "result": "−6.031", "unit": "mV"}]}
{"smiles": "[O-][Cl+3]([O-])([O-])O", "note": "[ClO4^−]", "values": [{"measurement": "Δφw→DCE^0 (standard ion transfer potential)", "setting": "[2]; transfer from water to DCE", "result": "−178", "unit": "mV"}, {"measurement": "ΔGw→DCE^0 (standard Gibbs free energy of ion transfer)", "setting": "[3]", "result": 17.2, "unit": "kJ/mol"}]}
{"smiles": "[Na+]", "note": "[Na^+]", "values": [{"measurement": "Δφw→DCE^0 (standard ion transfer potential)", "setting": "[2]; transfer from water to DCE", "result": "−610", "unit": "mV"}, {"measurement": "ΔGw→DCE^0 (standard Gibbs free energy of ion transfer)", "setting": "[3]", "result": 58.9, "unit": "kJ/mol"}]}
{"smiles": "Cl", "note": "[Cl^−]", "values": [{"measurement": "Δφw→DCE^0 (standard ion transfer potential)", "setting": "[2]; transfer from water to DCE", "result": "−481", "unit": "mV"}, {"measurement": "ΔGw→DCE^0 (standard Gibbs free energy of ion transfer)", "setting": "[3]", "result": 46.4, "unit": "kJ/mol"}]}
{"smiles": "[H+]", "note": "[H^+]", "values": [{"measurement": "Δφw→DCE^0 (standard ion transfer potential)", "setting": "[2]; transfer from water to DCE", "result": "−627", "unit": "mV"}, {"measurement": "ΔGw→DCE^0 (standard Gibbs free energy of ion transfer)", "setting": "[3]", "result": 60.5, "unit": "kJ/mol"}]}
{"smiles": "Br", "note": "[Br^−]", "values": [{"measurement": "Δφw→DCE^0 (standard ion transfer potential)", "setting": "[2]; transfer from water to DCE", "result": "−399", "unit": "mV"}, {"measurement": "ΔGw→DCE^0 (standard Gibbs free energy of ion transfer)", "setting": "[3]", "result": 38.5, "unit": "kJ/mol"}]}
{"smiles": "CC[N+](CC)(CC)CC", "note": "[NEt4^+, tetraethylammonium]", "values": [{"measurement": "Δφw→DCE^0 (standard ion transfer potential)", "setting": "[2]", "result": "−44", "unit": "mV"}]}
{"smiles": "[K+]", "note": "[K^+]", "values": [{"measurement": "Δφw→DCE^0 (standard ion transfer potential)", "setting": "[2]; transfer from water to DCE", "result": "−548", "unit": "mV"}, {"measurement": "ΔGw→DCE^0 (standard Gibbs free energy of ion transfer)", "setting": "[3]", "result": 52.9, "unit": "kJ/mol"}]}
{"smiles": "CCCC[N+](CCCC)(CCCC)CCCC", "note": "[NBu4^+, tetrabutylammonium]", "values": [{"measurement": "Δφw→DCE^0 (standard ion transfer potential)", "setting": "[2]; transfer from water to DCE", "result": 226, "unit": "mV"}]}
{"smiles": "F[P-](F)(F)(F)(F)F", "note": "[PF6^−]", "values": [{"measurement": "Δφw→DCE^0 (standard ion transfer potential)", "setting": "[2]; transfer from water to DCE", "result": "−90", "unit": "mV"}, {"measurement": "ΔGw→DCE^0 (standard Gibbs free energy of ion transfer)", "setting": "[3]", "result": 8.7, "unit": "kJ/mol"}]}
